Test results from patent US11234977B2, “Fused tricyclic pyrazolo-dihydropyrazinyl-pyridone compounds as antivirals” (priority 2017, dated 2022).

test system: HBsAg secretion, HepG2-Clone42 cells (Tet-inducible HBV-expressing cell line, HBV ayw strain); assay: HBsAg assay (HBsAg ELISA of secreted HBV sAg in HepG2-Clone42 cells); assay type: cell-based; conditions: Hepatitis B virus, read-out: HBsAg EC50
Procedure: HepG2-Clone42, a Tet-inducible HBV-expressing cell line with a stably integrated 1.3mer copy of the HBV ayw strain, was generated based on the Tet-inducible HepAD38 cell line with slight modifications. Ladner S K, et al., Antimicrobial Agents and Chemotherapy. 41(8):1715-1720 (1997). HepG2-Clone42 cells were cultured in DMEM/F-12+ Glutamax™ (Life Technologies, Carlsbad, Calif., USA), supplemented with 10% fetal bovine serum (Life Technologies), G-418 (Corning, Manassas, Va., USA) at a final concentration of 0.5 mg/mL, and 5 μg/mL Doxycycline (Sigma, St. Louis, Mo., USA) and maintained in 5% CO2 at 37° C.
HepG2-Clone42 cells were seeded into black clear-bottom 96-well plates at a concentration of 6.0×10^4 cells/well. 24 hours post-seeding, the cells were treated with 200 μl/well of media containing five-fold serial dilutions of compounds in DMSO. DMSO alone was used as the no drug control. The final DMSO concentration in all wells was 0.5%.
The HBsAg ELISA kit (Alpha Diagnostic International, San Antonio, Tex., USE, Catalog #4110) was used to determine the level (semi-quantitative) of secreted HBV sAg. The HBSAg ELISA assay was performed following the manufacturer's protocol as described.
Step 1. Pipet 100 μL each of compound or DMSO treated samples into HBsAg ELISA plates. Seal plates and incubate at room temp for 60 minutes.
Step 2. Aspirate samples and wash three times with Wash Buffer. Dispense 100 μL of antibody-HRP conjugate to each well. Incubate at room temp for 30 minutes.
Step 3. Aspirate samples and wash three times with Wash Buffer. Add 100 μL of TMB Substrate to all wells and incubate 15 minutes at room temp.
Step 4. Dispense 100 μL of Stop Solution to each well. Measure absorbance of ELISA plate at 450 nm.
Dose-response curves were generated and the EC50 value was defined as the compound concentration at which HBsAg secretion was reduced 50% compared to the DMSO control.
EC50 values were determined as follows:
Determine the percent of HBsAg secretion inhibition. Calculate the percent inhibition on of HBsAg secretion inhibition using the following equation: (XC-MB)/(MDMB) • where XC is the absorbance signal from compound-treated well; MB is average absorbance signal (background signal) for column 12 (no cells+HBsAg ELISA sample buffer) and MD is average absorbance signal from DMSO-treated wells. Then calculate EC50 values by non-linear regression using a four parameter curve logistic equation. The curve fit model employed is XLFit Dose Response One Site Model 204: y=(A+((B−A)/(1+(10^((C−x)*D))))) where A is the minimum y value, B is the maximum y value, C is the log EC50 value, and D is the slope factor. +++means<1 nm; ++means≥1 nm and ≤10 nm and +means>10 nm.

Compound | EC50 [nM]
COCCCOc1nn2c(c1Cl)-c1cc(=O)c(C(=O)O)cn1[C@H](C(C)(C)C)C2 [Compound 1.1, (R)-6-(tert-butyl)-1-chloro-2-(3-methoxypropoxy)-10-oxo-6,10-dihydro-5H-pyrazolo[1,5-a]pyrido[2,1-c]pyrazine-9-carboxylic acid] | < 1
COCCCOc1cc2n(n1)C[C@@H](C(C)(C)C)n1cc(C(=O)O)c(=O)cc1-2 [Compound 1.2, (R)-6-(tert-butyl)-2-(3-methoxypropoxy)-10-oxo-6,10-dihydro-5H-pyrazolo[1,5-a]pyrido[2,1-c]pyrazine-9-carboxylic acid] | > 10
COCCCOc1nn2c(c1Br)-c1cc(=O)c(C(=O)O)cn1[C@H](C(C)(C)C)C2 [Compound 1.3, (R)-1-bromo-6-(tert-butyl)-2-(3-methoxypropoxy)-10-oxo-6,10-dihydro-5H-pyrazolo[1,5-a]pyrido[2,1-c]pyrazine-9-carboxylic acid] | 1 to 10
CC(C)c1cc2n(n1)CC(C(C)(C)C)n1cc(C(=O)O)c(=O)cc1-2 (centres unmarked) [Compound 2.1, 6-(tert-butyl)-2-isopropyl-10-oxo-6,10-dihydro-5H-pyrazolo[1,5-a]pyrido[2,1-c]pyrazine-9-carboxylic acid] | > 10
CC(C)(C)[C@@H]1Cn2nc(-c3ccccc3)c(Cl)c2-c2cc(=O)c(C(=O)O)cn21 [Compound 3.1, (R)-6-(tert-butyl)-1-chloro-10-oxo-2-phenyl-5,6-dihydro-10H-pyrazolo[1,5-a]pyrido[2,1-c]pyrazine-9-carboxylic acid] | < 1
COc1ccccc1-c1nn2c(c1Cl)-c1cc(=O)c(C(=O)O)cn1[C@H](C(C)(C)C)C2 [Compound 3.2, (R)-6-(tert-butyl)-1-chloro-2-(2-methoxyphenyl)-10-oxo-5,6-dihydro-10H-pyrazolo[1,5-a]pyrido[2,1-c]pyrazine-9-carboxylic acid] | > 10
CC(C)[C@@H]1Cn2nc(-c3ccccc3)cc2-c2cc(=O)c(C(=O)O)cn21 [Compound 3.3, (R)-6-isopropyl-10-oxo-2-phenyl-5,6-dihydro-10H-pyrazolo[1,5-a]pyrido[2,1-c]pyrazine-9-carboxylic acid] | > 10
CC(C)[C@@H]1Cn2nc(-c3ccccc3)c(Cl)c2-c2cc(=O)c(C(=O)O)cn21 [Compound 3.4, (R)-1-chloro-6-isopropyl-10-oxo-2-phenyl-6,10-dihydro-5H-pyrazolo[1,5-a]pyrido[2,1-c]pyrazine-9-carboxylic acid] | > 10
